Measurements reported in US12421272B2, “Artificial nucleic acid, production method therefor, and use thereof” (SYSMEX CORPORATION, priority 2019, dated 2025).
Where “and” joins values, the source holds several entries; their conditions need not be identical. Equal values may be shown once.

Experiments:
Type in all cases: binding
[1] = system: single-stranded DNA (5′-d(AGCAAAAAACGC)-3′; SEQ ID NO: 6); assay: Melting temperature (Tm), capability of forming double strand with single-stranded DNA; settings: sense strand 5′-d(AGCAAAAAACGC)-3′; 100 nM NaCl, 10 mM sodium phosphate buffer (pH 7.2), 4 μM of each strand; 0.5° C./min.
[2] = system: single-stranded RNA (5′-r(AGCAAAAAACGC)-3′; SEQ ID NO: 7); settings: pH 7.2
[3] = system: Target double-stranded DNA (DNA-1), 203-bp PCR product from pBR322 plasmid; assay: Strand invasion in the presence of SSB, gel shift assay; settings: SSB 6 μM, oligonucleotide 200 nM, DNA-1 30 nM, 37° C. for 120, 60 or 30 minutes
Text: (§1) Target double-stranded DNA molecules are as follows. • (DNA-1) A 203-bp PCR product produced using pBR322 plasmid (commercially available product) as a template (SEQ ID NOs: 23 and 24). • (DNA-2) A 203-bp PCR product produced using artificial gene T1825G (commercially available product) based on pBR322 plasmid as a template. • (DNA-3) A 203-bp PCR product produced using artificial gene T1825C (commercially available product) based on pBR322 plasmid as a template. • (DNA-4) A 203-bp PCR product produced using artificial gene T1825A (commercially available product) based on pBR322 plasmid as a template.
Each of the sample solutions was reacted at 37° C. for 120 minutes, 60 minutes, or 30 minutes using a thermal cycler (StepOnePlus, Applied Biosystems).
After the completion of the reaction, two gels respectively having the sample solutions applied thereon prepared, and PAGE (Poly-Acrylamide Gel Electrophoresis) was carried out on the gels simultaneously under the following conditions. […]
After the completion of the electrophoresis, one of the gel was subjected to fluorescence staining (GelGreen Nucleic Acid Stain 10,000×, Biotium) for staining a nucleic acid, and the other gel was subjected to silver staining (EzStain Silver, ATTO corporation) for staining a nucleic acid and a protein simultaneously. […]

[4] = system: Target double-stranded DNA (DNA-1), 203-bp PCR product from pBR322 plasmid; assay: Strand invasion in the absence of SSB, gel shift assay; settings: no SSB
Text: as §1
The reaction was carried out using a thermal cycler (StepOnePlus, Applied Biosystems), in which each of the sample solutions was cooled from 94° C. to 54° C. at a cooling rate of 2° C./30 seconds or was kept at 37° C. for a certain period (24 hours, 48 hours).
The condition that the sample solution was cooled from 94° C. to 54° C. at a cooling rate of 2° C./30 seconds was a condition where a target double-stranded DNA (in this case, a 203-bp PCR product) can be converted to a single strand by the action of a heat energy and strand invasion can be caused by cooling slowly. Therefore, the condition simulated the use in a gene analysis technique.
The condition that temperature is kept at 37° C. for a certain period simulated an in vivo reaction, and therefore simulated the use in a nucleic acid medicine or genome edition.
The same procedures as in the step (3) above were carried out. In this experiment, only the staining using GelGreen (fluorescence staining) was carried out.
The reaction was carried out using a thermal cycler (StepOnePlus, Applied Biosystems), in which each of the sample solutions was cooled from 94° C. to 54° C. at a cooling rate of 2° C./30 seconds.

5′-d(GCGTTTTTTGCT)-3′: unmodified DNA antisense strand, SEQ ID NO: 5 (unmodified DNA)
Tm [1]: 52 °C
Tm [2]: 48 °C and 52 °C

PNA20: PNA 20-mer H-(Lys)ggcatgttcatcatcagtaa(Lys)-NH2 (GGCATGTTCATCATCAGTAA; all peptide nucleic acid (PNA); Lys residue at N- and C-terminus, C-terminal amide)
occurrence of strand invasion [3]: observed
occurrence of strand invasion ([4]; oligonucleotide 100 nM (3.3 equivalents), DNA-1 30 nM, cooled from 94° C. to 54° C. or left at 37° C.): the occurrence of strand invasion was not confirmed
occurrence of strand invasion (comparison of strand invasion functionality) ([4]; oligonucleotide 100 nM, DNA-1 30 nM, cooled from 94° C. to 54° C. or kept at 37° C. (24 hours, 48 hours)): the occurrence of strand invasion was not observed
occurrence of strand invasion into the sequence for wild-type ([4]; oligonucleotide 200 nM, DNA-1 15 nM, cooled from 94° C. to 54° C. or kept at 37° C. (24 hours, 48 hours)): did not cause strand invasion
